# In patent US11918552B2, “N-acetylcysteine for use as antibacterial agent” (priority 2016, dated 2024):
# Assays:
# BCC biofilm = test: Inhibition of biofilm formation, MBEC High-Throughput Assay, viable cell count; assay type: cell-based, Burkholderia cepacia complex; conditions: NAC 4, 8 and 16 mg/ml, two BCC isolates
# BCC isolates [1] = test: Effect of sub-MIC concentrations on growth curves; assay type: cell-based, Burkholderia cepacia complex; conditions: sub-MIC concentrations (4 and 8 mg/ml), all 4 tested BCC isolates
# S. maltophilia isolates [2] = test: Effect of sub-MIC concentrations on growth curves; assay type: cell-based, Stenotrophomonas maltophilia; conditions: sub-MIC concentrations (4 and 8 mg/ml), all 4 tested S. maltophilia isolates
# S. maltophilia biofilm = test: Inhibition of biofilm formation, MBEC High-Throughput Assay, viable cell count; assay type: cell-based, Stenotrophomonas maltophilia; conditions: NAC 4, 8 and 16 mg/ml, all S. maltophilia isolates
# [3] = tested on: S. maltophilia clinical isolates; test: MIC by broth microdilution; assay type: cell-based; conditions: Stenotrophomonas maltophilia
# [4] = tested on: BCC (B. cepacia, B. cenocepacia, B. multivorans, B. metallica, B. seminalis, B. stabilis) clinical isolates; test: organism not typed; assay type: cell-based, Burkholderia cepacia complex
# S. maltophilia isolates [5] = test: Time-kill assay; assay type: cell-based, Stenotrophomonas maltophilia; conditions: NAC 32 mg/ml
# BCC isolates [6] = test: Time-kill assay; assay type: cell-based, Burkholderia cepacia complex; conditions: NAC 32 mg/ml
structure (smiles),measurement,setting,value
"CC(=O)N[C@@H](CS)C(=O)O [NAC, N-acetylcysteine]",Inhibition of biofilm formation,BCC biofilm,inhibit biofilm formation in a dose-dependent fashion
same,Effect on growth,BCC isolates [1],slowed down the growth
same,Effect on growth,S. maltophilia isolates [2],slowed down the growth
same,Inhibition of biofilm formation,S. maltophilia biofilm,inhibit biofilm formation in a dose-dependent fashion
same,MIC,[3]; nine of 16 S. maltophilia clinical isolates,16 mg/mL
same,MIC,[3]; remaining S. maltophilia isolates (of 16),32 mg/mL
same,MIC,[4]; remaining BCC isolates (of 16),32 mg/mL
same,MIC,[4]; seven of 16 BCC clinical isolates,16 mg/mL
same,Reduction of bacterial inoculum (bactericidal),S. maltophilia isolates [5]; one S. maltophilia isolate,more than 3 logs
same,Reduction of bacterial inoculum,S. maltophilia isolates [5]; remaining S. maltophilia isolates,< 1 log CFU/ml
same,Reduction of bacterial inoculum (bactericidal),BCC isolates [6]; one BCC isolate,more than 3 logs
same,Reduction of bacterial inoculum,BCC isolates [6]; remaining BCC isolates,< 1 log CFU/ml
